Counter-ions that a name gives are not always drawn. Like-named read-outs stand apart in the source and are kept apart here.

The conditions of this series: for percent permeation of applied dose beyond the stratum corneum: single dose, four drugs in combination; for time of (initial) peak flux after dose application: base composition Lipoderm ActiveMax, four drugs applied in combination; for mean flux of percutaneous absorption: ex vivo human trunk skin. On the procedure: An evaluation of the percutaneous absorption of ketamine HCL, gabapentin, clonidine HCL, and baclofen in both Lipoderm® and Lipoderm® ActiveMax™ into human trunk skin, in vitro, using the Franz skin finite dose model was performed. The study was designed to evaluate the percutaneous absorption harmacokinetics of ketamine HCL, gabapentin, clonidine HCL, and baclofen. Absorption was measured in human cadaver skin, in vitro, using the finite dose technique and Franz diffusion cells.
Ketamine HCL 5% w/w, gabapentin 10% w/w, clonidine HCL 0.2% w/w and baclofen 2% w/w, in Lipoderm® and Lipoderm® ActiveMax, were tested on triplicate sections from three different cadaver skin donors for the percutaneous absorption of ketamine HCL, gabapentin, clonidine HCL, and baclofen over a 48-hour dose period. At pre-selected times after dose application, the dermal receptor solution was removed in its entirety, replaced with fresh receptor solution, and an aliquot saved for subsequent analysis. In addition, the epidermis and dermis were recovered and evaluated for drug content. The samples were analyzed for ketamine HCL, gabapentin, clonidine HCL, and baclofen content by High Performance Liquid Chromatography (HPLC)/MS.
The model uses ex vivo animal, human cadaver, or surgical skin mounted in specially designed diffusion cells that allow the skin to be maintained at a temperature and humidity that match typical in vivo conditions. (See Franz, T. J., Percutaneous Absorption: On the Relevance of In Vitro Data. J. Invest. Dermatol, 1975, 64:190-195.)
A finite dose (e.g., 4-7 mg/cm^2) of formulation may be applied to the outer surface of the skin and drug absorption may be measured by monitoring its rate of appearance in the receptor solution bathing the inner surface of the skin. Data defining total absorption, rate of absorption, as well as skin content may be accurately determined in this model. The method has historic precedent for accurately predicting in vivo percutaneous absorption kinetics. (See Franz T. J., The Cadaver Skin Absorption Mode and the Drug Development Process. Pharmacopeial Forum 34(5): 1349-1356, 2008; see also Franz T. J., Lehman P. A., and Raney S., Use of Excised Human Skin to Assess the Bioequivalence of Topical Products. Skin Pharmacol Physiol 22:276-286, 2009.)
During the evaluation, percutaneous adsorption was measured using the in vitro cadaver skin finite dose technique. Human cadaver trunk skin without obvious signs of skin disease, obtained within approximately 24 to 48 hours of death, was used in this study. The skin was dermatomed, cryopreserved, sealed in a water-impermeable bag and stored at approximately −70° C. until the day of the experiment. Prior to use, the skin was thawed in approximately 37° C. water, then rinsed in water to remove any adherent blood or other material from the surface.
Skin from three donors was cut into multiple smaller sections large enough to fit on an approximately nominal 0.8 cm^2 Franz diffusion cells. The dermal chamber was filled to capacity with a reservoir solution of phosphate-buffered isotonic saline (PBS), pH 7.4±0.1, with 0.1% Oleth-20 and 0.008% Gentamicin, and the epidermal cell (chimney) left open to ambient laboratory conditions. All cells were mounted in a diffusion apparatus in which the dermal bathing solution was stirred magnetically at approximately 600 RPM and the skin surface temperature maintained at 32.0°±1.0° C.
To assure the integrity of each skin section, its permeability to tritiated water was determined before application of the test products. (See Franz T. J. and Lehman P. A., The Use of Water Permeability as a Means of Validation for Skin Integrity in In Vitro Percutaneous Absorption Studies. Abst. J. Invest. Dermatol 1990, 94:525.) Following a brief (0.5-1 hour) equilibrium period, ^3H2O (NEN, Boston, Mass., sp. Act. ˜0.5 μCi/mL) was layered across the top of the skin so that the entire exposed surface was covered (approximately 250 to 500 μL).

Setting [1] is: Lipoderm ActiveMax base, four drugs simultaneously, intact.
Setting [2] is: Lipoderm ActiveMax base, about 1 hour after single application.
Setting [3] is: Lipoderm ActiveMax base, about 3 hours after single application.
Setting [4] is: Lipoderm ActiveMax base, about 6 hours after single application.
Where [5] appears, read: Lipoderm ActiveMax base, about 10 hours after single application.
The mark [6] stands for this setting: Lipoderm ActiveMax base, about 18 hours after single application.
[7] abbreviates: Lipoderm ActiveMax base, about 28 hours after single application.
[8] abbreviates: Lipoderm ActiveMax base, about 40 hours after single application.

As for `NCC1(CC(=O)O)CCCCC1` [gabapentin], the “time of (initial) peak flux after dose application” value is listed as “approximately one”. The “penetration of skin from the base composition” value (from here on “penetration of skin”) under setting [1] is “penetrate into and through ex vivo human trunk skin”. Also, the “percent permeation of applied dose beyond the stratum corneum” value (“percent permeation” for short) (Lipoderm ActiveMax base) was “approximately 2.6%”.

Regarding `Clc1cccc(Cl)c1N=C1NCCN1` [clonidine, clonidine HCL], the “mean flux using Lipoderm ActiveMax compared with Lipoderm” value was “exceed”; the “minimum mean flux using Lipoderm ActiveMax compared with Lipoderm” value is listed as “exceeded”; the “penetration of skin” value was “penetrate into and through ex vivo human trunk skin”. Further, the “mean flux of percutaneous absorption” value under setting [2] is given as “approximately 0.005 μg/cm^2/hr”. Under setting [3], the “mean flux of percutaneous absorption” value is recorded as “approximately 0.007 μg/cm^2/hr”. For the same compound, the “mean flux of percutaneous absorption” value under setting [4] is “approximately 0.006 μg/cm^2/hr”. Besides, the “mean flux of percutaneous absorption” value under setting [5] is “approximately 0.008 μg/cm^2/hr”. In addition, the “mean flux of percutaneous absorption” value under setting [6] was “approximately 0.008 μg/cm^2/hr”. In addition, the “mean flux of percutaneous absorption” value under setting [7] was “approximately 0.011 μg/cm^2/hr”. The “mean flux of percutaneous absorption” value under setting [8] is reported as “approximately 0.011 μg/cm^2/hr”.

`CNC1(c2ccccc2Cl)CCCCC1=O` (stereo not drawn) [ketamine, ketamine HCL]: the “mean flux of percutaneous absorption” value is “approximately 0.75 μg/cm^2/hr” under setting [2]; “approximately 3.0 μg/cm^2/hr” under setting [3]; “approximately 4.1 μg/cm^2/hr” under setting [4]; “approximately 4.3 μg/cm^2/hr” under setting [5]; “approximately 2.4 μg/cm^2/hr” under setting [6]; “approximately 2.5 μg/cm^2/hr” under setting [7]. Besides, the “mean flux of percutaneous absorption” value under setting [8] was “approximately 1.9 μg/cm^2/hr”. Also, the “penetration of skin” value under setting [1] is “penetrate into and through ex vivo human trunk skin”. Besides, where the note is “Lipoderm ActiveMax base, single application, 48 hours”, the maximum mean flux entry was “approximately 4.3 μg/cm^2/hr”. Also, the “percent permeation” value is, setting by setting: (Lipoderm ActiveMax base) “approximately 53.4%”; (Lipoderm base) “approximately 44.8%”. For the same compound, where the note is “ketamine: most of the 48 hours, from about 2 hours, clonidine: about two to about 40 hours after application”, the “mean flux using Lipoderm ActiveMax compared with Lipoderm” value is recorded as “exceed”. The “maximum mean flux using Lipoderm ActiveMax compared with Lipoderm” value (single application, 48 hours) is recorded as “exceeded”.

Take `NCC(CC(=O)O)c1ccc(Cl)cc1` (stereo not drawn) [baclofen]: the “time of (initial) peak flux after dose application” value is recorded as “approximately one”. In addition, under setting [1], the “penetration of skin” value is “penetrate into and through ex vivo human trunk skin”. Also, the “percent permeation” value (Lipoderm ActiveMax base) is on record as “approximately 5.5%”. Besides, the “percent permeation” value (Lipoderm base) is on record as “approximately 3.95%”.

The values are drawn from patent US9724315B2, “Compounded transdermal pain management” (CMPD Licensing, LLC, priority 2011, dated 2017).
